Assay results taken from patent US20250084409A1, “COMPOSITIONS AND METHODS FOR CAPPING RNAS” (Verve Therapeutics, Inc., priority 2022, published 2025).
Like-named read-outs stand apart in the source and are kept apart here.

What was measured:
T7 RNA polymerase [1] = target: T1, T7 RNA polymerase (Escherichia phage T7, UniProt P00573); format: biochemical; settings: for mRNA full-length purity: ABE mRNA MA004, capillary gel electrophoresis; for amount of full-length mRNA produced: initiator-to-NTP ratio ranging from 1:1 down to 1:5
T1 sequence (P00573 whole entry): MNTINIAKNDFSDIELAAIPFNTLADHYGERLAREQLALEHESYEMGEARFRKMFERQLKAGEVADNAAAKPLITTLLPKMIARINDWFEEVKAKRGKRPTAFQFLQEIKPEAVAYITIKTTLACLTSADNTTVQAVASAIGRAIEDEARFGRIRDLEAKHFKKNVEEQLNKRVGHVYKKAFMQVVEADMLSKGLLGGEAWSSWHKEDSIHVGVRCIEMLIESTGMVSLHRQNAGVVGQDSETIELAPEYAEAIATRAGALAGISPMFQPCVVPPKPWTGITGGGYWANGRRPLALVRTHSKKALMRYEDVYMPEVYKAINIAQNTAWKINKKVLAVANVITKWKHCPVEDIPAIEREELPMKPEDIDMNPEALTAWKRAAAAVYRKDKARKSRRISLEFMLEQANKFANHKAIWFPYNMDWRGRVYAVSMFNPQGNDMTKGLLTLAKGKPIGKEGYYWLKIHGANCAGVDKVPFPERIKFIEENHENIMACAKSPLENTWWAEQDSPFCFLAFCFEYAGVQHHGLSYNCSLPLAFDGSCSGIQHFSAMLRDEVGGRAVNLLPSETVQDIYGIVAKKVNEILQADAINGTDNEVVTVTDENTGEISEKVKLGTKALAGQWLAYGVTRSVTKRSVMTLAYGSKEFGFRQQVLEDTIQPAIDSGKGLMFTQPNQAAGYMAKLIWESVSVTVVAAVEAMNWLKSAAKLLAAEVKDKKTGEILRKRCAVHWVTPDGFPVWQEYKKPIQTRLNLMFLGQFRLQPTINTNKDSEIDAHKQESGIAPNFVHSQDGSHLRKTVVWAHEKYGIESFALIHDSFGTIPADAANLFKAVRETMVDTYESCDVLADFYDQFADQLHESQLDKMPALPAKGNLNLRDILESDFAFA

HeLa lysate = assay: Translation of luciferase mRNA in HeLa lysate in vitro translation kit; format: biochemical; settings: luminescence
Experimental: HeLa cells are cultured in RPMI with 10% FBS at 37° C. under 5% CO2 atmosphere. Cells are plated into an appropriately sized well plate per manufacturer's recommended seeding conditions. After overnight incubation, cells are checked for monolayer formation and then transfected using a transfection agent such as MessengerMAX. Solution A: the desired amount of luciferase mRNA is diluted in OptiMEM and mixed with Solution B: MessengerMAX in OptiMEM. After mixing solutions A and B, the mixture is incubated at room temperature for 20 minutes, and then added dropwise to each well of cells. The cells are then incubated at 37° C. for 12-72 hours to allow for expression of mRNA into protein. Cells are harvested and prepared for measuring luciferase protein levels per Promega luciferase assay system protocol. […] For example, luciferase encoding mRNA with 5′ end region motif, 1007a, was added to a commercially available HeLa lysate in vitro translation kit to produce luciferase protein. Luciferase protein activity as measured by luminescent light production in the presence of a luciferin substrate, was measured with a luminescence-detecting plate reader. Relative light units measured per this assay are proportional to the amount of luciferase protein translated from mRNA. […]

NHP ANGPTL3 = assay: In vivo ABE base editing in NHP liver (LNP, NGS); settings: LNP with sgRNA targeting NHP ANGPTL3 and ABE mRNA, FIG. 8
Experimental: Lipid nanoparticles (LNPs) are generated by microfluidic mixing using the Precision Nanosystems NanoAssemblr system according to the manufacturer's protocol, with some optimization for individual payloads. The resulting LNPs are filtered using 0.2-micron filters and stored at 4° C. or frozen at −80° C.
LNPs used in these studies were prepared with sgRNA targeting ANGPTL3 and ABE encoding mRNAs with 5′ end region motifs as described in Example 11A, comprising chemically synthesized sgRNAs targeting the NHP ANGPTL3 genes and ABE8.8 mRNA in a 1:1 weight ratio. LNPs were administered to NHP (n=3 per group) by one single intravenous infusion in a total volume of 6 mL/kg. Livers were collected 16 days post dose for NGS measurements of editing efficiency. […]
Paired-end reads are analyzed with the CRISPResso2 pipeline (Clement, K. et al., Nat. Biotech. 2019, 37, 224-226). Briefly, low-quality reads are filtered out, adapter sequences are trimmed from the reads, and the paired-end reads are merged and aligned to the amplicon sequence. The editing percentage is calculated as the number of reads supporting […], over the total number of aligned reads. For ABE, the editing percentage is calculated as the number of reads supporting […], over the total number of aligned reads. […]

RIG-I = RIG-I activation in HEK-Lucia RIG-I reporter cells; format: cell-based
Experimental: (§1) LNPs are prepared and administered in vivo to mice as in Example 11(A,B). Blood is collected at appropriate time points, typically at intervals between 1-48 hours post-dose and terminal end point, and processed to serum or plasma per techniques well known in the art. Serum or plasma cytokine and chemokine levels are measured using V-PLEX cytokine and chemokine detection kits. Cytokine and chemokine levels are compared to animals treated with buffer alone as well as pre-dose sampling of the treatment animals. In some instances, the immune stimulation of capped mRNA is assessed after in vitro transfection to reporter cell lines such as HEK-Lucia RIG-I cell reporter model, which produces luciferase signal in the presence of IFN-stimulated response elements such as uncapped mRNA. This cell model is cultured and transfected as described in Example 7, and luciferase activity is measured using a luciferase activity kit and plate reader. It is known in the art that uncapped mRNA produces a RIG-I-dependent IFN immune response, and capped mRNA lessens this immune stimulation. […] The results of this example were compared using mRNA made with a commercially available 5′ end initiator, 1002a, as a reference.
RIG-I overexpressed reporter HEK293 cells were utilized to evaluate cap specific immune response. mRNA with different cap analogs were transfected to the reporter cells. This cell model is cultured and transfected as described in Example 7. The response was measured at 24 hours after transfection. RIG-I is a cytosolic pattern recognition receptor that is responsible for the type-1 interferon response and can respond to 5′ triphosphate of RNA.

[2] = test system: TNF-α, IFN-γ, IFN-α, IFN-β, MIP-1B, IP-10, IL-10, IL-6; assay: In vivo immunogenicity: serum cytokine and chemokine levels in mice; parameters: species or system mouse; settings: LNPs 1 mg/kg and 3 mg/kg
Experimental: as §1
In vivo immunogenicity was quantified as described in Example 12. Mice were treated with LNPs at a level of 1 mg/kg and 3 mg/kg, and serum was collected 3 hours and 24 hours post-injection. […] For comparison, cytokine measurements were also completed for mRNA comprising commercially available 5′ end initiator 1002a.

cells = assay: Cas9 protein expression in cells (antibody detection); format: cell-based; settings: 6 hours post transfection; low and high doses
Experimental: Protein expression is directly assessed via antibody detection of the Cas9 protein. The measured signal is compared to that of a recombinant Cas9 of known concentration to derive the Y-axis value. […] This is consistent at both low and high doses at 6 hours post transfection. At 24 hours after transfection, the potency difference between the analogs was less pronounced, but the trend generally remained consistent.

T7 RNA polymerase [3] = target: T1, T7 RNA polymerase; settings: for production yield for ABE encoding mRNA: ABE mRNA MA004, IVT with T7 polymerase, 37° C., about 1-4 hours, UV spectrometry; for mRNA production yield: ABE mRNA MA079, 4 mM analog, 90 minutes, UV absorption
T7 RNA polymerase [4] = target: T1, T7 RNA polymerase
[5] = test system: Primary human hepatocytes; assay: Luciferase expression in primary human hepatocytes; format: cell-based; settings: 6 hours after transfection, 106.3 ng of mRNA dose
Source text: The harvested cell lysate was subjected to conditions to derive a quantifiable fluorescent signal. This signal was then compared to analog 1002a to determine how structural differences may be related to the changes in expression. Primary human hepatocytes were subjected to two different doses of mRNA encoding for the protein luciferase made using the indicated test analogs. A single RNA molecule may be interpreted by protein synthesis machinery multiple times, so an analog that may increase the frequency of interpretation may be desirable as a 5′ initiator. This frequency of interpretation, or translation efficiency, may be determined by measuring the amount of protein produced in a population of cells exposed to a known amount of RNA at a given point following that exposure. The duration of expression may also be assessed to determine how an analog may sustain the observed expression, as the RNA molecule is eventually decayed within the cell thereby destroying its protein-encoding capacity. […] Similar protein expression profiles was also observed at 24 hours post transfection (FIG. 17b).

T7 polymerase = T7 polymerase (Escherichia phage T7, UniProt P00573); settings: J. Mol. Biol. (2007) 370, 256-268; read-out: Kd of T7 polymerase for the first initiating guanosine; cited from earlier work
Sequence of T7 polymerase (P00573 whole entry): as above

[6] = serum 24 hours post-injection, baseline = about pre-injection level

For `COC1C(OP([O-])(=S)OCC2OC(n3cnc4c(=O)[nH]c(N)nc43)C(O)C2O)C(COP(=O)(O)OP(=O)(O)OP(=O)(O)OCC2OC(n3c[n+](C)c4c(=O)[nH]c(N)nc43)C(O)C2O)OC1n1cnc2c(N)ncnc21` (stereo not drawn) [1007a, m^7G(ppp) Am(ps)G], the mRNA full-length purity (T7 RNA polymerase [1]) was “about 88%”, the “amount of full-length mRNA produced” value (T7 RNA polymerase [1]) was “did not reduce” and the “luciferase activity relative to mRNA with initiator 1002a” value (HeLa lysate) was “around 2 ×”. The “base editing efficacy compared to mRNAs with 1002a 5′ end region motif” value (NHP ANGPTL3) was “lower or similar base editing efficacy”, the “RIG-I activity as compared to uncapped mRNA” value (RIG-I; HEK-Lucia RIG-I cell reporter model, FIG. 9) was “reduced RIG-I activity” and the “RIG-I activation as a result of the chemical modifications to the cap structure” value (RIG-I; HEK-Lucia RIG-I cell reporter model, reference 1002a) was “did not appear to increase RIG-I activation”. For the same molecule, the “cytokines (TNF-α, IFN-γ, IFN-α, IFN-β, MIP-1B, IP-10, IL-10, IL-6)” value (from here on “cytokines”) ([2]; serum 3 hours post-injection) was “detectable”, the “cytokines” value [2, 6] was “returned to baseline” and the Cas9 expression (cells) was “largely similar among most analogs except 1007a_D1 and 1007a”. The “production yield for ABE encoding mRNA” value (T7 RNA polymerase [3]) was “about 3.3 mg per 1 ml of IVT reaction”, the mRNA production yield (T7 RNA polymerase [3]) was about 4 mg/mL and the capping efficiency (T7 RNA polymerase [4]; initiator-to-NTP ratio ranging from 1:1 down to 1:2.5) was over 90%.
With `COC1C(O[P@@]([O-])(=S)OCC2OC(n3cnc4c(=O)[nH]c(N)nc43)C(O)C2O)C(COP(=O)(O)OP(=O)(O)OP(=O)(O)OCC2OC(n3c[n+](C)c4c(=O)[nH]c(N)nc43)C(O)C2O)OC1n1cnc2c(N)ncnc21` (stereo partly drawn) [1007a_D1, m^7G(ppp) Am(ps)G] the “mRNA full-length purity (FLP)” value (T7 RNA polymerase [1]; ABE mRNA MA079, 4 mM analog, 90 minutes, electrophoretic separation) was 79.4%, the RIG-I response (RIG-I; RIG-I overexpressed reporter HEK293 cells, 24 hours after transfection, FIG. 14) was “lowest RIG-I response” and the “cytokines” value ([2]; serum 3 hours post-injection) was “detectable”. The “cytokines” value [2, 6] was “returned to baseline”, the Cas9 expression (cells) was “largely similar among most analogs except 1007a_D1 and 1007a” and the mRNA production yield (T7 RNA polymerase [3]) was “slightly lower”.
With `COC1C(O[P@]([O-])(=S)OCC2OC(n3cnc4c(=O)[nH]c(N)nc43)C(O)C2O)C(COP(=O)(O)OP(=O)(O)OP(=O)(O)OCC2OC(n3c[n+](C)c4c(=O)[nH]c(N)nc43)C(O)C2O)OC1n1cnc2c(N)ncnc21` (stereo partly drawn) [1007a_D2, m^7G(ppp) Am(ps)G] the “cytokines” value ([2]; serum 3 hours post-injection) was “detectable”, the “cytokines” value [2, 6] was “returned to baseline” and the relative luciferase expression [5] was “a little increased protein expression”. For the same molecule, the mRNA production yield (T7 RNA polymerase [3]) was about 4 mg/mL.
For `COC1C(OP(=O)(O)OCC2OC(n3cnc4c(=O)[nH]c(N)nc43)C(O)C2O)C(COP(=O)(O)OP(=O)([S-])OP(=O)(O)OCC2OC(n3c[n+](C)c4c(=O)[nH]c(N)nc43)C(O)C2O)OC1n1cnc2c(N)ncnc21` (stereo not drawn) [1107a, m^7G(ppsp) Am(p)G], the mRNA full-length purity (T7 RNA polymerase [1]) was “about 86%”, the “amount of full-length mRNA produced” value (T7 RNA polymerase [1]) was “did not reduce” and the “production yield for ABE encoding mRNA” value (T7 RNA polymerase [3]) was “about 3.3 mg per 1 ml of IVT reaction”. The capping efficiency (T7 RNA polymerase [4]; initiator-to-NTP ratio ranging from 1:1 down to 1:1.67) was over 90%.
For `Nc1nc2c(ncn2[C@@H]2O[C@H](COP(=O)(O)OP(=O)(O)OP(=O)(O)O)[C@@H](O)[C@H]2O)c(=O)[nH]1` [GTP], the Kd (T7 polymerase) is given as 2000 µM.
In the case of `COC1C(OP(=O)(O)OCC2OC(n3cnc4c(=O)[nH]c(N)nc43)C(O)C2O)C(COP(=O)(O)OP(=O)([O-])OP(=O)(O)OCC2OC(n3c[n+](Cc4ccc(Cl)cc4)c4c(=O)[nH]c(N)nc43)C(O)C2O)OC1n1cnc2c(N)ncnc21` (stereo not drawn) [compound 5231, 4-Cl-Bn7G(ppp) Am(p)G], the “cytokines” value ([2]; serum 3 hours post-injection) is reported as “detectable”, the “cytokines” value [2, 6] is reported as “returned to baseline” and the mRNA production yield (T7 RNA polymerase [3]) is reported as “slightly lower”.
